EC50 and IC50 data for 43 compounds are collected here from patent US8546443B2, “Benzylic oxindole pyrimidines” (Boehringer Ingelheim International GmbH, priority 2010, dated 2013).

Broadly, the EC50 is the concentration needed to bring the measured effect to its halfway point. For orientation: IC50 means the midpoint of a concentration-inhibition curve.

In assay [1] the test system is TC-71 (Ewing's sarcoma) cells. The experiment in a line: Cell proliferation assay, TC-71 (Alamar Blue). It is filed as cell-based. As to conditions: 72 h with compound, EC50 ranges as class symbols. As for the experimental part: Cell Proliferation Assays
Compounds were tested for their anti-proliferative effects in the TC-71 (Ewing's sarcoma) and HCT 116 (colorectal carcinoma) cancer cell lines in vitro. Published scientific data has described that interference with the Insulin-like Growth Factor-1 Receptor (IGF-1R) signaling pathway reduces the proliferation of TC-71 cells. Therefore TC-71 cells served as a positive control cell line for monitoring the activity of compounds against IGF-1R-mediated cell proliferation. […] Therefore the HCT 116 cell line served as a negative control.
2000 TC-71 cells or 1000 HCT 116 cells were seeded per well in 180 μL IMDM+10% foetal calf serum (FCS)+ penicillin/streptomycin into 96-well microtitre plates. The plates were placed in a cell culture incubator (37° C. in a humidified atmosphere of […]/5 CO2) overnight. The following day, serial dilutions of compounds, prepared in duplicates, were transferred onto the cell layers (controls without compound). The cells were cultivated for a further 72 h in the cell culture incubator. 20 μL of Alamar Blue™ (Serotec Ltd, Düsseldorf, Germany) was added to each well and the plates incubated for 7 h in the cell culture incubator. Fluorescence (extinction wavelength of 544 nm and emission at 590 nm) was then measured and the normalized data fitted by iterative calculation with a sigmoidal curve analysis program (Graph Pad Prism) with a variable Hill slope to determine the IC50 values.
Background: Alamar Blue is a resazurin reagent that responds to reducing activity.

The target of assay [2] is T1, cytoplasmic kinase domain of human IGF-1R (IGF-1R-GST) (Homo sapiens, UniProt P08069).
T1 construct: cytoplasmic kinase domain of human IGF-1R (amino acids 964-1370); GST (glutathione-S-transferase); made in house; host or cells: High Five insect cells (Invitrogen)
T1 sequence (P08069 964-1367 limits assumed): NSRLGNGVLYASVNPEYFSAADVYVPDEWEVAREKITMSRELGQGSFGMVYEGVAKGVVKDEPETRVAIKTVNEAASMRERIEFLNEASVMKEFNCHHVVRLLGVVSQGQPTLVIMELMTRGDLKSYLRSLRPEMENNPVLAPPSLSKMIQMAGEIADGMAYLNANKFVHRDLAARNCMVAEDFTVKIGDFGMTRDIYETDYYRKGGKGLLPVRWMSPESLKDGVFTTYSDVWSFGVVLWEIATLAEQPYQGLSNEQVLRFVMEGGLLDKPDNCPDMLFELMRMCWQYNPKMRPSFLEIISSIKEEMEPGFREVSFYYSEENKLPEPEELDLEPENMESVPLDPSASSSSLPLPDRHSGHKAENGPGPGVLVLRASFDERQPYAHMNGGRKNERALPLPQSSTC
Briefly: Insulin-like growth factor-1 receptor (IGF-1R) kinase assay (DELFIA). It is filed as biochemical. As to conditions: IGF-1R-GST kinase activity, read-out: IGF1R IC50. The method, boiled down: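 GST-tagged IGF-1R cytoplasmic kinase domain phosphorylates pEY with biotinylated pEY for 40 min at RT; EDTA stop. Product captured on streptavidin, detected with europium anti-phosphotyrosine antibody by DELFIA time-resolved fluorescence; IC50 from inhibition curves.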

Consider `CC(C)(O)CN1CCC(c2ccc(Nc3ncc(Br)c(NCc4cccc5c4C(C)(C)C(=O)N5)n3)cc2)CC1` [Example I-210], for which the EC50 in assay [1] is less than 50 nM. For the same compound, the IC50 in assay [2] was found to be 0.47 nM.
On the same counts, the results for `CC(C)(O)CN1CCC(c2ccc(Nc3ncc(Cl)c(NCc4cccc5c4C(C)(C)C(=O)N5)n3)cc2)CC1` [Example I-211] are 50 to 250 nM and 3 nM.
In the case of `CC1(C)C(=O)Nc2cccc(CNc3nc(Nc4ccc(C5CCN(CCCF)CC5)cc4)ncc3Br)c21` [Example I-212], the EC50 in assay [1] was in the range of 50 to 250 nM. Further, the IC50 in assay [2] came out at 3 nM.
On the same counts, the results for `CC1(C)C(=O)Nc2cccc(CNc3nc(Nc4ccc(C5CCN(CCCF)CC5)cc4)ncc3Cl)c21` [Example I-213] are 50 to 250 nM and 4 nM.
On the same counts, the results for `Cc1cc(C2CCN(CCO)CC2)ccc1Nc1ncc(Br)c(NCc2cccc3c2C(C)(C)C(=O)N3)n1` [Example I-214] are less than 50 nM and 0.62 nM.
With `COCCN1CCC(n2cc(Nc3ncc(Cl)c(NCc4cccc5c4C(C)(C)C(=O)N5)n3)cn2)CC1` [Example I-215], the EC50 in assay [1] was in the range of 250 to 3000 nM. For the same compound, in assay [2], the IC50 was determined as 12 nM.
`Cc1cc(C2CCN(CCS(C)(=O)=O)CC2)ccc1Nc1ncc(Cl)c(NCc2cccc3c2C(C)(C)C(=O)N3)n1` [Example I-216]: the EC50 in assay [1] is 50 to 250 nM. In addition, the 50% inhibitory concentration (IC50) in assay [2] was 2 nM.
As for `Cc1cc(C2CCN(CCO)CC2)ccc1Nc1ncc(Cl)c(NCc2cccc3c2C(C)(C)C(=O)N3)n1` [Example I-217], the EC50 in assay [1] is 50 to 250 nM. Besides, the IC50 in assay [2] was 1 nM.
As to `COCCN1CCC(c2ccc(Nc3ncc(Cl)c(NCc4cccc5c4C(C)(C)C(=O)N5)n3)c(C)c2)CC1` [Example I-218], in assay [1], the EC50 is less than 50 nM. In assay [2], the half-maximal inhibitory concentration (IC50) is 1 nM.
For `Cc1cc(C2CCN(CC(N)=O)CC2)ccc1Nc1ncc(Cl)c(NCc2cccc3c2C(C)(C)C(=O)N3)n1` [Example I-220], in that order: 50 to 250 nM and 2 nM.
On the same counts, the results for `COCCN1CCC(c2ccc(Nc3ncc(Br)c(NCc4cccc5c4C(C)(C)C(=O)N5)n3)c(C)c2)CC1` [Example I-221] are less than 50 nM and 0.98 nM.
Consider `COCC(=O)N1CCC(c2ccc(Nc3ncc(Cl)c(NCc4cccc5c4C(C)(C)C(=O)N5)n3)c(C)c2)CC1` [Example I-292], for which the EC50 in assay [1] fell in the range of 50 to 250 nM. Also, the IC50 in assay [2] amounted to 5 nM.
For `CCNC(=O)N1CCC(c2ccc(Nc3ncc(Cl)c(NCc4cccc5c4C(C)(C)C(=O)N5)n3)c(C)c2)CC1` [Example I-293], in that order: 50 to 250 nM and 10 nM.
For `Cc1cc(C2CCN(C(N)=O)CC2)ccc1Nc1ncc(Cl)c(NCc2cccc3c2C(C)(C)C(=O)N3)n1` [Example I-294], in that order: 250 to 3000 nM and 7 nM.
Take `CNC1(C(=O)N2CCC(c3ccc(Nc4ncc(Cl)c(NCc5cccc6c5C(C)(C)C(=O)N6)n4)c(C)c3)CC2)CC1` [Example I-295]: in assay [1], the EC50 was in the range of 50 to 250 nM. In assay [2], the IC50 is 4 nM.
Consider `COc1cc(C2CCN(C(=O)CO)CC2)ccc1Nc1ncc(Cl)c(NCc2cccc3c2C(C)(C)C(=O)N3)n1` [Example I-296], for which the EC50 in assay [1] was 50 to 250 nM. The IC50 in assay [2] was determined as 1 nM.
Take `Cc1cc(C2CCN(C(=O)C(C)(C)O)CC2)ccc1Nc1ncc(Cl)c(NCc2cccc3c2C(C)(C)C(=O)N3)n1` [Example I-297]: the EC50 in assay [1] is 50 to 250 nM. Besides, the IC50 in assay [2] amounted to 9 nM.
Regarding `Cc1cc(C2CCN(C(=O)CO)CC2)ccc1Nc1ncc(Cl)c(NCc2cccc3c2C(C)(C)C(=O)N3)n1` [Example I-298], the EC50 in assay [1] lay within 50 to 250 nM. Besides, in assay [2], the IC50 worked out at 7 nM.
As for `CNC1(C(=O)N2CCC(c3ccc(Nc4ncc(Cl)c(NCc5cccc6c5C(C)(C)C(=O)N6)n4)cc3)CC2)CC1` [Example I-299], in assay [1], the EC50 is less than 50 nM. In addition, the IC50 in assay [2] came out at 8 nM.
With `COc1cc(C2CCN(C(=O)C(C)(C)O)CC2)ccc1Nc1ncc(Cl)c(NCc2cccc3c2C(C)(C)C(=O)N3)n1` [Example I-300], the EC50 in assay [1] was less than 50 nM. Further, the IC50 in assay [2] was found to be 11 nM.
For `COc1cc(C2CCN(CC(C)(C)O)CC2)ccc1Nc1ncc(C(F)(F)F)c(NCc2cccc3c2C(C)(C)C(=O)N3)n1` [Example I-302], in that order: less than 50 nM and 0.6 nM.
On the same counts, the results for `Cc1cc(Nc2ncc(C(F)(F)F)c(NCc3cccc4c3C(C)(C)C(=O)N4)n2)ccc1C1CCN(CC(C)(C)O)CC1` [Example I-303] are less than 50 nM and 0.2 nM.
On the same counts, the results for `COc1cc(N2CCN(CC(C)(C)O)CC2)ccc1Nc1ncc(C(F)(F)F)c(NCc2cccc3c2C(C)(C)C(=O)N3)n1` [Example I-304] are less than 50 nM and 1 nM.
For `Cc1cc(N2CCN(CC(C)(C)O)CC2)ccc1Nc1ncc(C(F)(F)F)c(NCc2cccc3c2C(C)(C)C(=O)N3)n1` [Example I-305], the EC50 in assay [1] lay within 50 to 250 nM. Moreover, in assay [2], the IC50 came to 2 nM.
For `Cc1cc(N2CCN(C)CC2)ccc1Nc1ncc(C(F)(F)F)c(NCc2cccc3c2C(C)(C)C(=O)N3)n1` [Example I-307], in that order: less than 50 nM and 1 nM.
On the same counts, the results for `Cc1cc(C2CCN(C)CC2)ccc1Nc1ncc(C(F)(F)F)c(NCc2cccc3c2C(C)(C)C(=O)N3)n1` [Example I-308] are less than 50 nM and 0.8 nM.
As for `Cc1cc(C2CCN(CC(C)(C)O)CC2)ccc1Nc1ncc(C(F)(F)F)c(NCc2cccc3c2C(C)(C)C(=O)N3)n1` [Example I-309], in assay [1], the EC50 is less than 50 nM. For the same compound, the IC50 in assay [2] worked out at 1 nM.
In the case of `CC(C)(O)CN1CCC(c2ccc(Nc3ncc(C(F)(F)F)c(NCc4cccc5c4C(C)(C)C(=O)N5)n3)c(OC(F)F)c2)CC1` [Example I-310], the EC50 in assay [1] lay within 50 to 250 nM. Also, in assay [2], the IC50 was found to be 5 nM.
On the same counts, the results for `Cc1cc(Nc2ncc(C(F)(F)F)c(NCc3cccc4c3C(C)(C)C(=O)N4)n2)c(F)cc1C1CCN(CC(C)(C)O)CC1` [Example I-311] are 50 to 250 nM and 15 nM.
Take `Cc1cc(C2CCN(CC(C)(C)O)CC2)c(C)cc1Nc1ncc(C(F)(F)F)c(NCc2cccc3c2C(C)(C)C(=O)N3)n1` [Example I-312]: in assay [1], the EC50 lay within 50 to 250 nM. The IC50 in assay [2] amounted to 27 nM.
For `Cc1c(Nc2ncc(C(F)(F)F)c(NCc3cccc4c3C(C)(C)C(=O)N4)n2)ccc(C2CCN(CC(C)(C)O)CC2)c1C` [Example I-313], in that order: less than 50 nM and 0.5 nM.
As for `CCc1cc(C2CCN(CC(C)(C)O)CC2)ccc1Nc1ncc(C(F)(F)F)c(NCc2cccc3c2C(C)(C)C(=O)N3)n1` [Example I-314], the EC50 in assay [1] is 50 to 250 nM. Besides, the IC50 in assay [2] is 5 nM.
Take `Cc1cc(N2CCN(CC(C)(C)O)CC2)ccc1Nc1ncc(Br)c(NCc2cccc3c2C(C)(C)C(=O)N3)n1` [Example I-317]: in assay [1], the EC50 was less than 50 nM. Further, the IC50 in assay [2] worked out at 6 nM.
On to `Cc1cc([C@H]2CCCN(CC(C)(C)O)C2)ccc1Nc1ncc(Br)c(NCc2cccc3c2C(C)(C)C(=O)N3)n1` [Example I-319], for which the EC50 in assay [1] was less than 50 nM. Also, the IC50 in assay [2] was determined as 2 nM.
On the same counts, the results for `Cc1cc([C@@H]2CCCN(CC(C)(C)O)C2)ccc1Nc1ncc(Br)c(NCc2cccc3c2C(C)(C)C(=O)N3)n1` [Example I-320] are less than 50 nM and 0.9 nM.
For `COc1cc(N2CCN(CC(C)(C)O)CC2)ccc1Nc1ncc(Br)c(NCc2cccc3c2C(C)(C)C(=O)N3)n1` [Example I-321], in that order: less than 50 nM and 2 nM.
With `COc1cc(C2CCN(CC(C)(C)O)CC2)ccc1Nc1ncc(Br)c(NCc2cccc3c2C(C)(C)C(=O)N3)n1` [Example I-323], the EC50 in assay [1] is less than 50 nM. In assay [2], the IC50 stood at 0.9 nM.
`Cc1cc(Nc2ncc(Br)c(NCc3cccc4c3C(C)(C)C(=O)N4)n2)ccc1C1CCN(CC(C)(C)O)CC1` [Example I-324]: the EC50 in assay [1] was less than 50 nM. Further, the IC50 in assay [2] stood at 0.1 nM.
On the same counts, the results for `Cc1cc(C2CCN(CC(O)C(F)(F)F)CC2)ccc1Nc1ncc(Cl)c(NCc2cccc3c2C(C)(C)C(=O)N3)n1` (centres unmarked) [Example I-326] are 50 to 250 nM and 2 nM.
Turning to `Cc1cc(N2CCN(C)CC2)ccc1Nc1ncc(Cl)c(NCc2cccc3c2C(C)(C)C(=O)N3)n1` [Example I-330], in assay [1], the EC50 was less than 50 nM. In assay [2], the IC50 stood at 3 nM.
On the same counts, the results for `COc1cc(C2CCN(CC(C)(C)O)CC2)ccc1Nc1ncc(Cl)c(NCc2cccc3c2C(C)(C)C(=O)N3)n1` [Example I-331] are less than 50 nM and 1 nM.
Consider `Cc1cc(C2CCN(C)CC2)ccc1Nc1ncc(Cl)c(NCc2cccc3c2C(C)(C)C(=O)N3)n1` [Example I-332], for which the EC50 in assay [1] is less than 50 nM. The IC50 in assay [2] was determined as 1 nM.
`Cc1cc(Nc2ncc(Cl)c(NCc3cccc4c3C(C)(C)C(=O)N4)n2)ccc1C1CCN(CC(C)(C)O)CC1` [Example I-334]: the EC50 in assay [1] was less than 50 nM. In assay [2], the IC50 worked out at 0.4 nM.
